What was measured:
[1] = biological target: T1, hNav1.3 (Homo sapiens, UniProt Q9NY46); experiment: automated whole-cell patch clamp (QPatch 16X), HEK293-hNav1.3; type: cell-based
T1 construct: host or cells: HEK293

[2] = biological target: T2, hNav1.5 (Homo sapiens, UniProt Q14524); experiment: automated whole-cell patch clamp (QPatch 16X), HEK293-hNav1.5; type: cell-based
T2 construct: host or cells: HEK293

[3] = acute in vivo toxicity after intravenous injection; parameters: species or system mouse
Experimental: Acute in vivo toxicity. All animal experiments were performed in accordance with protocols approved by the Institutional Animal Care and Use Committee of MSK and followed the National Institute of Health guidelines for animal welfare. Six athymic nude mice 6-8 weeks old were purchased from Envigo RMS, Inc. An intravenous (IV) catheter was placed in tail vein of each mouse and they were anesthetized using Isoflurane (Novaplus, Telangana-India). Anesthesia was maintained using 1.0 to 1.5 L/min of Isoflurane and 2 L/min of oxygen. Three animals were injected with 68 μM, 7 nmol Hsp1a-FL in 100 μL of PBS, and the other three with […], of PBS. Animals were monitored using a rodent surgical monitor (Indus instruments, Houston, Tex.) before, during, and up to 16 minutes after injection. Numeric data points represent averaged values of 5±1 seconds duration. Data was collected before injection, 15 seconds after injection, 5 minutes after injection and 15 minutes after injection. Mouse body core temperature was measured by placing a rectal probe and electronically regulated via a surgical platform. The high-resolution electrocardiogram (EKG) was measured by placing non-invasive electrodes on the 4 paws and electrical contact was assured using a conducting gel (Electrode cream, Indus instruments, Houston, Tex.). Heart rate was automatically calculated from the R-R peaks derived from the EKG signal. Peripheral capillary oxygen saturation (SpO2) was non-invasively measured by placing a clip sensor on the animal's left thigh.
Statistical Analysis. Data were statistically analyzed by generalized estimating equations followed by LSD post hoc test when appropriate using SPSS 23.0. During animal toxicity studies, data points representing loss of signal were excluded from the analysis. Loss of signal was defined by a brief contact loss between the monitoring equipment and the mice (creating a “false” zero or −1 result). Loss of signal was corrected by placing the electrode in close contact to the mice. Average and standard deviations were calculated for each mouse.
Unless otherwise stated, data points represent mean values and error bars represent the standard deviation of biological replicates (mean±SEM). All p-values were calculated using a Student's unpaired t-test. Statistical significance was considered for p-values<0.05 and as follows: ns=not significant, *p<0.05, **p<0.01, ***p<0.001. Mann-Whitney tests were used for analysis of the unpaired samples (e.g. vital signs in mice injected with Hsp1a and mice from the control group) and the Wilcoxon test was used for analysis of paired samples (e.g. vital signs from same mouse before and after injection). Statistical significance was determined with alpha=0.05. Analysis and figures were prepared in GraphPad Prism 8.

[4] = before, 15 seconds, 5 and 15 minutes after injection

T2 sequence (Q14524 whole entry): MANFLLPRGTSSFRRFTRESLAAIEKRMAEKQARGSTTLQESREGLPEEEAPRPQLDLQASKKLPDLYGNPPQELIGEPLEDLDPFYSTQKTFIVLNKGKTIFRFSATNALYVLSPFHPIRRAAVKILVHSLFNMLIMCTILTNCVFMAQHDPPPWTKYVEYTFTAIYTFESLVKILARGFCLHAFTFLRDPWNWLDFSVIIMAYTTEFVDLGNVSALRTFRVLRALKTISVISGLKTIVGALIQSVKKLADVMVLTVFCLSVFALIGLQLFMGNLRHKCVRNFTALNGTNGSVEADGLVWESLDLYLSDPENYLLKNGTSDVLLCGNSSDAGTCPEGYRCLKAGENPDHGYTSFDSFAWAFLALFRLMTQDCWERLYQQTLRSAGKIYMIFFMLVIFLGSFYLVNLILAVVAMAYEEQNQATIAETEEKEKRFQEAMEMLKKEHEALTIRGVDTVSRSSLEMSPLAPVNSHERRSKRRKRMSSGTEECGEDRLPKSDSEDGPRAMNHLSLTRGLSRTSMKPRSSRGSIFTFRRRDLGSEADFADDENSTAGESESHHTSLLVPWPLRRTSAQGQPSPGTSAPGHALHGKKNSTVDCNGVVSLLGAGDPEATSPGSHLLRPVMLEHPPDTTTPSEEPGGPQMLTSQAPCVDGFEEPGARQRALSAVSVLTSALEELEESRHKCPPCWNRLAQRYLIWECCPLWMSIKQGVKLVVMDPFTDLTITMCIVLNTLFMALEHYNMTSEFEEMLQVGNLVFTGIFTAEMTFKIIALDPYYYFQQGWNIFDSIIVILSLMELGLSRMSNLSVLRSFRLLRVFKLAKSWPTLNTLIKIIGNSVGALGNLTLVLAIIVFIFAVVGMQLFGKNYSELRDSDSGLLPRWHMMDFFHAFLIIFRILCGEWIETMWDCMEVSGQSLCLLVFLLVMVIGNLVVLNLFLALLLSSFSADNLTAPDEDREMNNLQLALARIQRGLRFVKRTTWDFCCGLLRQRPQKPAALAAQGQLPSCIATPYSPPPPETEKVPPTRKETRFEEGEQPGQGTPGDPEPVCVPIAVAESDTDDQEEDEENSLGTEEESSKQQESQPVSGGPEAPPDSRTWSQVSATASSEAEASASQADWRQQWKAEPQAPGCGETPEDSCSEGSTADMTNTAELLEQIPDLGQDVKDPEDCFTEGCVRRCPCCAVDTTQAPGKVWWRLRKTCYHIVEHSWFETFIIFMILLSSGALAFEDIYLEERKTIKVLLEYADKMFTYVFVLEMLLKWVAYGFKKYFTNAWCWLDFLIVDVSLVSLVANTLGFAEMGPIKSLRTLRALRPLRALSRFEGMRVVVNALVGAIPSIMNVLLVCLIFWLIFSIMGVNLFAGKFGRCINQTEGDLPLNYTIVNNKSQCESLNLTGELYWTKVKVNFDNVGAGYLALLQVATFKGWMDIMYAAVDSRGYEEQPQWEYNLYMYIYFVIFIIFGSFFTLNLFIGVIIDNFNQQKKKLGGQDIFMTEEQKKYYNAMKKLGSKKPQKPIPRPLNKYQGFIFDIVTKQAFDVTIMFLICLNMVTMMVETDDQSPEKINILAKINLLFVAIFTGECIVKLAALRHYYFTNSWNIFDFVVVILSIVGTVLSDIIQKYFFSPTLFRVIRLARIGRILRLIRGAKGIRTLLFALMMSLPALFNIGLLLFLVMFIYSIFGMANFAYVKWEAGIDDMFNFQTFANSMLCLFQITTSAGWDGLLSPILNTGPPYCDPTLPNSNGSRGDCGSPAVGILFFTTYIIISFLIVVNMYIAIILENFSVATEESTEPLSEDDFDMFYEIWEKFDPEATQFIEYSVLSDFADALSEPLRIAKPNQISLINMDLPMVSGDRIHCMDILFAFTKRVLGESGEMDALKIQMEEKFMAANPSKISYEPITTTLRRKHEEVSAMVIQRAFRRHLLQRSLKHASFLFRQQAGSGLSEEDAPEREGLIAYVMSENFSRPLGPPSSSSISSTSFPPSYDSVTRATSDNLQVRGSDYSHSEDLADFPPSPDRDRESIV
T1 sequence (Q07699 19-218): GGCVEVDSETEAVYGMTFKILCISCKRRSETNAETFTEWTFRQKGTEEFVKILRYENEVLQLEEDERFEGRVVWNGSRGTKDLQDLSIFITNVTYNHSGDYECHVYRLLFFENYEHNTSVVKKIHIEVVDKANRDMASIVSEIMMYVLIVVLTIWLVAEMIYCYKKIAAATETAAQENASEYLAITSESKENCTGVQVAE
T1 sequence (Q9NY46 whole entry): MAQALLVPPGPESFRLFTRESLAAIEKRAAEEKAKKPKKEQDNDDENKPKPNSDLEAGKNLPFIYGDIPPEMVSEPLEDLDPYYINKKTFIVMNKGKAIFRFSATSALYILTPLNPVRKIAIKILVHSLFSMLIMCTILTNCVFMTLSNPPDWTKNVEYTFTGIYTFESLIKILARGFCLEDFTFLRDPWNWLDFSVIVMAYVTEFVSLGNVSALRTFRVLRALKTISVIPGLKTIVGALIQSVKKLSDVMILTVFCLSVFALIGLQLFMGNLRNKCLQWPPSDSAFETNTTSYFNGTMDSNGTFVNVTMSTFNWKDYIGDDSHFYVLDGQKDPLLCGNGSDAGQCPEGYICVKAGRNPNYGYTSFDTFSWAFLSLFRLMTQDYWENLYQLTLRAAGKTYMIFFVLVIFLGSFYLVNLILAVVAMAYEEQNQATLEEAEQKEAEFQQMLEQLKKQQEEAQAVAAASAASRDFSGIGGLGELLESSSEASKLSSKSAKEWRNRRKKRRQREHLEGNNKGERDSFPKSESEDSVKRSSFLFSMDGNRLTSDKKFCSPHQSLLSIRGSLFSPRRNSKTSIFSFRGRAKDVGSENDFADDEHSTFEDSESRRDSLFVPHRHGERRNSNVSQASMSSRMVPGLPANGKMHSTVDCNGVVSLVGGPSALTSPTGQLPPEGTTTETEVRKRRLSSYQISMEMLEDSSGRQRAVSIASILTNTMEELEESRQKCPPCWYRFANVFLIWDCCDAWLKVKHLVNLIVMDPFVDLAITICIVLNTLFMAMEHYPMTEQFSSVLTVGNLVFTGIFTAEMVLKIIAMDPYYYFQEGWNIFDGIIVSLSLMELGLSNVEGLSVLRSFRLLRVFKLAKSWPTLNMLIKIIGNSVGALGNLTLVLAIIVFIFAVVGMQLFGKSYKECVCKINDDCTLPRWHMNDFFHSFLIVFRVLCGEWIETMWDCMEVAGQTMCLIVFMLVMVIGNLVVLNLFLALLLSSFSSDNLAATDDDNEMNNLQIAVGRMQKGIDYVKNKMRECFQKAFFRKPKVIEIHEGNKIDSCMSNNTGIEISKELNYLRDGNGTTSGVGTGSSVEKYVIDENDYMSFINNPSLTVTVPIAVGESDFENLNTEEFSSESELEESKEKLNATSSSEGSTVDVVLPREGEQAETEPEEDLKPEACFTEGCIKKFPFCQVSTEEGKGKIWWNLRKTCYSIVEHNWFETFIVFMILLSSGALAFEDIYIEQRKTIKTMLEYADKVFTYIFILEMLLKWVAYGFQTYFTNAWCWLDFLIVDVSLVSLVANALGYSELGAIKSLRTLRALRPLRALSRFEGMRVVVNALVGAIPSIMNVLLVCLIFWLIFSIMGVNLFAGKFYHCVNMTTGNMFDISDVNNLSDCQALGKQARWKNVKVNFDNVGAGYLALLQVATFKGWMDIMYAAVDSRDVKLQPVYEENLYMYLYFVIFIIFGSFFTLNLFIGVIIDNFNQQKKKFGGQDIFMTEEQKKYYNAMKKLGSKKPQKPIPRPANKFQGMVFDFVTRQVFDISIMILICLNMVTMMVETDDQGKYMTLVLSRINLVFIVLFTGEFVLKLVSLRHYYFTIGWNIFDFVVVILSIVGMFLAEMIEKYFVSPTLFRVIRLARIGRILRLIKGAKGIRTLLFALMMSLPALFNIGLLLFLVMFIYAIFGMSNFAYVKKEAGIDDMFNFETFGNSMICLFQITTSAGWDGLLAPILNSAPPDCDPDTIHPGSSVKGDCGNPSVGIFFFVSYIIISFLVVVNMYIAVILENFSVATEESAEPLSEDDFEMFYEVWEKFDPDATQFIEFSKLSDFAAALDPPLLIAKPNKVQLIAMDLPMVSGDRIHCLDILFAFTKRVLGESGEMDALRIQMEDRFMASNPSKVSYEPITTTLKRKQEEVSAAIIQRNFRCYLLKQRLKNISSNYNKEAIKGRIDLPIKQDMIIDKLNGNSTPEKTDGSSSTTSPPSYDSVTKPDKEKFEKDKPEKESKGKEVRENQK

CC[C@H](C)[C@H](NC(=O)[C@H](CCCCN)NC(=O)[C@@H]1CSSC[C@@H]2NC(=O)[C@@H]3CCCN3C(=O)[C@H](CCCNC(=N)N)NC(=O)[C@H](CCC(=O)O)NC(=O)[C@H](CO)NC(=O)[C@H](CC(=O)O)NC(=O)[C@@H]3CSSC[C@H](NC(=O)[C@H](C(C)C)NC(=O)[C@H](CC(C)C)NC(=O)CNC(=O)[C@H](CCC(=O)O)NC(=O)[C@H](CSSC[C@H](NC(=O)[C@@H](N)Cc4ccc(O)cc4)C(=O)N[C@@H](CCC(N)=O)C(=O)N[C@@H](CCCCN)C(=O)N[C@@H](Cc4ccccc4)C(=O)N[C@@H](CC(C)C)C(=O)N[C@@H](Cc4c[nH]c5ccccc45)C(=O)N[C@@H]([C@@H](C)O)C(=O)N3)NC2=O)C(=O)N[C@@H](CCCNC(=N)N)C(=O)N[C@@H](CC(C)C)C(=O)N[C@@H](Cc2c[nH]c3ccccc23)C(=O)N1)C(=O)N[C@@H](CC(N)=O)C(N)=O [sHsp1a]
inhibition of hNav1.3 currents ([1]; at 200 nM): did not show any significant inhibition | inhibition at 2 µM ([1]; at 2 μM, read-out: max. current inhibition hNav1.3): < 50% | IC50 ([1]; read-out: pIC50 on hNav1.3 (converted)): > 1000 nM | inhibition of hNav1.5 currents ([2]; at 200 nM): did not show any significant inhibition | sensitivity of hNav1.5 ([2]; at 2 μM): insensitive | inhibition at 2 µM ([2]; at 2 μM, read-out: max. current inhibition hNav1.5): < 50% | IC50 ([2]; read-out: pIC50 on hNav1.5 (converted)): > 1000 nM | effect on heart muscle (heart rate) [3, 4]: no effect | effect on the respiratory musculature (oxygen saturation in peripheral blood) [3, 4]: no effect | effect on mouse body temperature ([3]; mouse, in vivo): no effect
